Patent US9447044B2, “Thioaryl derivatives as GPR120 agonists” (LG LIFE SCIENCES LTD., priority 2012, dated 2016)

molecular target: T1, hGPR120 (Homo sapiens, UniProt Q5NUL3); assay: Measurement of activity of GPR120 agonist (cell-based assay), calcium fluorescence; conditions: CHO-K1 cells expressing Ga16 and hGPR120; Calcium 5 dye fluorescence; activity class
T1 construct: expressed in transfected cells; host or cells: CHO-K1
T1 sequence (Q5NUL3 1-361): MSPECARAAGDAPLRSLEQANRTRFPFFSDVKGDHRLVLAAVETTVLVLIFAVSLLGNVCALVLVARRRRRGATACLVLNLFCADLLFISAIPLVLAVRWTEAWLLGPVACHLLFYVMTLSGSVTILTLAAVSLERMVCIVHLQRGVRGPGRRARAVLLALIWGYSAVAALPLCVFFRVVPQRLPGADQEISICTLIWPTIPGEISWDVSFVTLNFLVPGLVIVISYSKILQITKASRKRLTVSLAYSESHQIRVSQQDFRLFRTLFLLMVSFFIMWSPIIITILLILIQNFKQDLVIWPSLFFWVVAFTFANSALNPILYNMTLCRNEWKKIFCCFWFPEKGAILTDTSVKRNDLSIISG
Outline: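 CHO-K1 cells co-expressing Gα16 and hGPR120, loaded with Calcium 5 dye for 1 h at 37° C, received serially diluted agonists (final 0.5% DMSO). Fluorescence (Ex 485/Em 525 nm) was expressed as relative percent over 0.1% DMSO-only wells; activity binned as A >20 μM, B 20–2 μM, C 2–0.2 μM, D <0.2 μM.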

SMILES	EC50
CC(C)Sc1ncccc1COc1ccc(C2CC2C(=O)O)cc1Cl (centres unmarked) [Example 97, 2-[3-chloro-4-(2-isopropylsulfanyl-pyridin-3-ylmethoxy)-phenyl]-cyclopropane carboxylic acid]	< 200 nM
O=C(O)C1CC1c1ccc(OCc2cccc(SCC3CC3)n2)c(Cl)c1 (centres unmarked) [Example 98, 2-[3-chloro-4-(6-cyclopropylmethylsulfanyl-pyridin-2-ylmethoxy)-phenyl]-cyclopropane carboxylic acid]	< 200 nM
CC(C)Sc1cccc(COc2ccc(C3CC3C(=O)O)cc2Cl)n1 (centres unmarked) [Example 99, 2-[3-chloro-4-(6-isopropylsulfanyl-pyridin-2-ylmethoxy)-phenyl]-cyclopropane carboxylic acid]	< 200 nM
O=C(O)C1CC1c1ccc(OCc2cccc(SC3CCCC3)n2)c(Cl)c1 (centres unmarked) [Example 100, 2-[3-chloro-4-(6-cyclopentylsulfanyl-pyridin-2-ylmethoxy)-phenyl]-cyclopropane carboxylic acid]	< 200 nM
O=C(O)C1CC1c1ccc(OCc2cccnc2SC2CCCC2)c(Cl)c1 (centres unmarked) [Example 101, 2-[3-chloro-4-(2-cyclopentylsulfanyl-pyridin-3-ylmethoxy)-phenyl]-cyclopropane carboxylic acid]	< 200 nM
O=C(O)C1CC1c1ccc(OCc2cccnc2SC2CCC2)c(Cl)c1 (centres unmarked) [Example 102, 2-[3-chloro-4-(2-cyclobutylsulfanyl-pyridin-3-ylmethoxy)-phenyl]-cyclopropane carboxylic acid]	< 200 nM
O=C(O)C1CC1c1ccc(OCc2cccc(SC3CCC3)n2)c(Cl)c1 (centres unmarked) [Example 103, 2-[3-chloro-4-(6-cyclobutylsulfanyl-pyridin-2-ylmethoxy)-phenyl]-cyclopropane carboxylic acid]	< 200 nM
O=C(O)C1CC1c1ccc(OCc2cccc(SC3CCCC3)n2)cc1Cl (centres unmarked) [Example 104]	200 to 2000 nM
Cc1c(OCc2cccnc2SC(C)C)ccc(C2CC2C(=O)O)c1C (centres unmarked) [Example 105, 2-[4-(2-isopropylsulfanyl-pyridin-3-ylmethoxy)-2,3-dimethyl-phenyl]-cyclopropane carboxylic acid]	2000 to 20000 nM
Cc1c(OCc2cccnc2SCC2CC2)ccc(C2CC2C(=O)O)c1C (centres unmarked) [Example 106, 2-[4-(2-cyclopropylmethylsulfanyl-pyridin-3-ylmethoxy)-2,3-dimethyl-phenyl]-cyclopropane carboxylic acid]	> 20000 nM
O=C(O)C1CC1c1ccc(OCc2cccnc2SCC2CC2)c(Cl)c1 (centres unmarked) [Example 107, 2-[3-chloro-4-(2-cyclopropylmethylsulfanyl-pyridin-3-ylmethoxy)-phenyl]-cyclopropane carboxylic acid]	< 200 nM
CCCSc1ncccc1COc1ccc(C2CC2C(=O)O)cc1Cl (centres unmarked) [Example 108, 2-[3-chloro-4-(2-propylsulfanyl-pyridin-3-ylmethoxy)-phenyl]-cyclopropane carboxylic acid]	< 200 nM

Results, then the molecule that gave them:

EC50	SMILES
200 to 2000 nM	COc1ccc(COc2ccc(C3CC3C(=O)O)cc2Cl)c(SC(C)C)n1 (centres unmarked) [Example 109, 2-[3-chloro-4-(2-isopropylsulfanyl-6-methoxy-pyridin-3-ylmethoxy)-phenyl]-cyclopropane carboxylic acid]
200 to 2000 nM	O=C(O)C1CC1Cc1cc(F)c(OCc2cccc(SC3CCCC3)n2)c(F)c1 (centres unmarked) [Example 110, 2-[4-(6-cyclopentylsulfanyl-pyridin-2-ylmethoxy)-3,5-difluoro-benzyl]-cyclopropane carboxylic acid]
< 200 nM	O=C(O)CC1COc2c1cc(F)c(OCc1cccnc1SC1CCC1)c2F (centres unmarked) [Example 111, [6-(2-cyclobutylsulfanyl-pyridin-3-ylmethoxy)-5,7-difluoro-2,3-dihydro-benzofuran-3-yl]-acetic acid]
> 20000 nM	CCCSc1ncccc1COc1ccc(C2CC2C(=O)O)c(C)c1C (centres unmarked) [Example 112, 2-[2,3-dimethyl-4-(2-propylsulfanyl-pyridin-3-ylmethoxy)-phenyl]-cyclopropane carboxylic acid]
> 20000 nM	Cc1c(OCc2cccnc2SC2CCC2)ccc(C2CC2C(=O)O)c1C (centres unmarked) [Example 113, 2-[4-(2-cyclobutylsulfanyl-pyridin-3-ylmethoxy)-2,3-dimethyl-phenyl]-cyclopropane carboxylic acid]
2000 to 20000 nM	Cc1c(OCc2cccc(SC(C)C)n2)ccc(C2CC2C(=O)O)c1C (centres unmarked) [Example 114, 2-[4-(6-isopropylsulfanyl-pyridin-2-ylmethoxy)-2,3-dimethyl-phenyl]-cyclopropane carboxylic acid]
< 200 nM	O=C(O)C1CC1Cc1cc(F)c(OCc2cccc(SC3CCC3)n2)c(F)c1 (centres unmarked) [Example 115, 2-[4-(6-cyclobutylsulfanyl-pyridin-2-ylmethoxy)-3,5-difluoro-benzyl]-cyclopropane carboxylic acid]
200 to 2000 nM	CC(C)Sc1ncccc1COc1c(F)cc(CC2CC2C(=O)O)cc1F (centres unmarked) [Example 116, 2-[3,5-difluoro-4-(2-isopropylsulfanyl-pyridin-3-ylmethoxy)-benzyl]-cyclopropane carboxylic acid]
200 to 2000 nM	O=C(O)CC1CC1c1ccc(OCc2cccc(SC3CCCC3)n2)c(F)c1 (centres unmarked) [Example 120, {2-[4-(6-cyclopentylsulfanyl-pyridin-2-ylmethoxy)-3-fluoro-phenyl]-cyclopropyl}-acetic acid]
< 200 nM	CCCSc1ncccc1COc1ccc(C2CC2CC(=O)O)cc1F (centres unmarked) [Example 121, {2-[3-fluoro-4-(2-propylsulfanyl-pyridin-3-ylmethoxy)-phenyl]-cyclopropyl}-acetic acid]
< 200 nM	O=C(O)Cc1coc2c(F)c(OCc3cccnc3SC3CCCC3)c(F)cc12 [Example 122, [6-(2-cyclopentylsulfanyl-pyridin-3-ylmethoxy)-5,7-difluoro-benzofuran-3-yl]-acetic acid]
< 200 nM	O=C(O)CC1COc2c1cc(F)c(OCc1cccnc1SC1CCCC1)c2F (centres unmarked) [Example 123, [6-(2-cyclopentylsulfanyl-pyridin-3-ylmethoxy)-5,7-difluoro-2,3-dihydro-benzofuran-3-yl]-acetic acid]
< 200 nM	O=C(O)C1CC1c1ccc(OCc2cccnc2SCC2CC2)c(Cl)c1 (centres unmarked) [Example 127, 2-[3-chloro-4-(2-cyclopropylmethylsulfanyl-pyridin-3-ylmethoxy)-phenyl]-cyclopropane carboxylic acid]

same assay, conditions: CHO-K1 cells expressing Ga16 and hGPR120; Calcium 5 dye fluorescence; numeric value

EC50	SMILES
108 nM	CCCSc1ncccc1COc1c(F)cc(CC2CC2C(=O)O)cc1F (centres unmarked) [Example 117, 2-[3,5-difluoro-4-(2-propylsulfanyl-pyridin-3-ylmethoxy)-benzyl]-cyclopropane carboxylic acid]
135 nM	Cc1c(OCc2cccnc2SC2CCCC2)ccc2c(CC(=O)O)coc12 [Example 118, [6-(2-cyclopentylsulfanyl-pyridin-3-ylmethoxy)-7-methyl-benzofuran-3-yl]-acetic acid]
91 nM	CC(C)Sc1ncccc1COc1ccc(C2CC2C(=O)O)cc1Cl (centres unmarked) [Example 126, 2-[3-chloro-4-(2-isopropylsulfanyl-pyridin-3-ylmethoxy)-phenyl]-cyclopropane carboxylic acid]
42 nM	O=C(O)C1CC1c1ccc(OCc2cccc(SCC3CC3)n2)c(Cl)c1 (centres unmarked) [Example 128, 2-[3-chloro-4-(6-cyclopropylmethylsulfanyl-pyridin-2-ylmethoxy)-phenyl]-cyclopropane carboxylic acid]
